Measured values taken from the supplement of paper PMC13380429.

How the values were obtained:
Conditions in all cases: 72 h
[1] = test system: HepG2; test: relative viability EC50 (midpoint between 100% and the lowest measured viability); higher = less toxic
[2] = test system: U2OS; test: as above
[3] = test system: Caco-2; test: as above
[4] = test system: HepG2; test: drug sensitivity score (DSS) for viability; higher = more toxic; extreme values may be limits of the assay
[5] = test system: U2OS; test: as above
[6] = test system: Caco-2; test: as above
[7] = test system: HepG2; test: cell viability relative to DMSO; higher = less toxic
[8] = test system: U2OS; test: as above
[9] = test system: Caco-2; test: as above
[10] = test system: Vero E6; test: relative viability EC50 (midpoint between 100% and the lowest measured viability); higher = less toxic
[11] = test system: Calu-3; test: as above
[12] = test system: Vero E6; test: drug sensitivity score (DSS) for viability; higher = more toxic; extreme values may be limits of the assay
[13] = test system: Calu-3; test: as above
[14] = test system: Vero E6; test: cell viability relative to DMSO; higher = less toxic
[15] = test system: Calu-3; test: as above

Structure (SMILES)	relative viability EC50 [1] [µM]	relative viability EC50 [2] [µM]	relative viability EC50 [3] [µM]	drug sensitivity score [4]	drug sensitivity score [5]	drug sensitivity score [6]	cell viability ([7]; 1 nM) [%]	cell viability ([7]; 10 nM) [%]	cell viability ([7]; 100 nM) [%]	cell viability ([7]; 1000 nM) [%]	cell viability ([7]; 10000 nM) [%]	cell viability ([8]; 1 nM) [%]	cell viability ([8]; 10 nM) [%]	cell viability ([8]; 100 nM) [%]	cell viability ([8]; 1000 nM) [%]	cell viability ([8]; 10000 nM) [%]	cell viability ([9]; 1 nM) [%]	cell viability ([9]; 10 nM) [%]	cell viability ([9]; 100 nM) [%]	cell viability ([9]; 1000 nM) [%]	cell viability ([9]; 10000 nM) [%]	relative viability EC50 [10] [µM]	relative viability EC50 [11] [µM]	drug sensitivity score [12]	drug sensitivity score [13]	cell viability ([14]; 1 nM) [%]	cell viability ([14]; 10 nM) [%]	cell viability ([14]; 100 nM) [%]	cell viability ([14]; 1000 nM) [%]	cell viability ([14]; 10000 nM) [%]	cell viability ([15]; 1 nM) [%]	cell viability ([15]; 10 nM) [%]	cell viability ([15]; 100 nM) [%]	cell viability ([15]; 1000 nM) [%]	cell viability ([15]; 10000 nM) [%]
CC(=O)NNC(=O)N1Cc2ccccc2Oc2ccc(Cl)cc21	> 10	> 10	> 10	0.1	0	0	98.5	102	96.1	94	87.7	98.5	95.9	101	99.9	102	105	100	107	95.5	99.7	–	–	–	–	–	–	–	–	–	–	–	–	–	–
Cc1cccc(C(=O)NCN2CCN(c3ccccc3C#N)CC2)c1	> 10	> 10	> 10	0	0	0	105	96.6	96.9	101	94.5	98.1	103	97.2	101	101	95.3	103	89.1	104	104	–	–	–	–	–	–	–	–	–	–	–	–	–	–
Cc1oc2ccccc2c1CNC(=O)NCc1cccs1	–	–	> 10	–	–	0	–	–	–	–	–	–	–	–	–	–	103	106	98.4	96.9	96.6	> 10	> 10	0	0	103	107	102	96.9	97.9	92.4	93.4	96.2	89.9	99.3
Cn1cc(/C=C2\C(=O)Nc3cccnc32)c2ccccc21	–	> 10	> 10	–	0	0	–	–	–	–	–	93.9	98.4	95.3	101	99.5	97.9	94.4	95.2	94	91.7	> 10	> 10	0	0	96	97.1	92.7	87	106	88.6	114	102	109	122
N#C[C@@H]1C[C@@H]2C[C@@H]2N1C(=O)[C@@H](N)C12CC3CC(CC(O)(C3)C1)C2	–	> 10	> 10	–	0	0	–	–	–	–	–	98.5	102	93.5	100	87.7	101	98.6	95.8	104	98.2	> 10	> 10	0	0	95.5	104	97.8	97.9	96.6	98.2	108	92.8	108	97.7
Nc1nccc(Oc2ccc(NC(=O)c3cn(COP(=O)(O)O)cc(-c4ccc(F)cc4)c3=O)cc2F)c1Cl	3.15	> 10	> 10	3.6	0	0	104	102	108	99.8	35	97.9	103	98.7	104	106	97.2	96.8	94	94.5	90.2	> 10	–	0	–	106	103	105	97.5	102	–	–	–	–	–
OC[C@H]1O[C@@H](n2cnc3c(N[C@H]4CCC[C@@H]4O)ncnc32)[C@H](O)[C@@H]1O	> 10	> 10	> 10	0	0	0	86.2	84	95	102	94	99.4	100	98.6	97.1	102	103	99.3	104	101	107	> 10	–	0	–	103	102	98.9	99	97.3	–	–	–	–	–
N#C/C(=C\c1ccc(O)c(O)c1)C(=O)NCc1ccccc1 [AG-490]	–	> 10	> 10	2.4	0	0.7	96.4	101	99.9	95	66.6	94.1	99.8	95.8	103	95.5	95.9	98.7	92.5	92.2	82.1	> 10	> 10	0.2	0	94.1	98.2	98.7	94.7	86.6	96.7	103	92.8	96.7	91.6
O=C(Nc1cccc(Br)c1)c1cccc(S(=O)(=O)N2CCCCCC2)c1 [AK-7]	–	> 10	> 10	0.9	0	1.4	96.7	103	99.9	104	72.9	97.7	92.8	98.5	92.8	86.3	90.6	94.9	93.5	92.9	75.1	> 10	> 10	0	0.6	98.7	102	99.4	100	94.3	102	94	106	105	77
